# From publication PMC11602716 (Nature, 2024)
# Experiments:
# [1] = system: mice; test: Saccharin-conditioned taste avoidance; type: in vivo, mouse; conditions: 0.15% saccharin, s.c. 325 nmol kg^−1 EB1002 or 10 nmol kg^−1 semaglutide, n = 10 per group
# [2] = system: NK1R, NK2R and NK3R; conditions: cited from earlier work
# [3] = system: humans; conditions: cited from earlier work
Compound,average weight loss [3],further results
CC[C@H](C)[C@H](NC(=O)[C@H](Cc1ccccc1)NC(=O)[C@H](CCC(=O)O)NC(=O)[C@H](CCCCNC(=O)COCCOCCNC(=O)COCCOCCNC(=O)CC[C@H](NC(=O)CCCCCCCCCCCCCCCCC(=O)O)C(=O)O)NC(=O)[C@H](C)NC(=O)[C@H](C)NC(=O)[C@H](CCC(N)=O)NC(=O)CNC(=O)[C@H](CCC(=O)O)NC(=O)[C@H](CC(C)C)NC(=O)[C@H](Cc1ccc(O)cc1)NC(=O)[C@H](CO)NC(=O)[C@H](CO)NC(=O)[C@@H](NC(=O)[C@H](CC(=O)O)NC(=O)[C@H](CO)NC(=O)[C@@H](NC(=O)[C@H](Cc1ccccc1)NC(=O)[C@@H](NC(=O)CNC(=O)[C@H](CCC(=O)O)NC(=O)C(C)(C)NC(=O)[C@@H](N)Cc1cnc[nH]1)[C@@H](C)O)[C@@H](C)O)C(C)C)C(=O)N[C@@H](C)C(=O)N[C@@H](Cc1c[nH]c2ccccc12)C(=O)N[C@@H](CC(C)C)C(=O)N[C@H](C(=O)N[C@@H](CCCNC(=N)N)C(=O)NCC(=O)N[C@@H](CCCNC(=N)N)C(=O)NCC(=O)O)C(C)C [semaglutide],,conditioned taste avoidance [1]: aversive
neurokinin A (4–10)-S5K/L9mL/M10Nle,,NK2R selectivity [2]: some degree of selectivity
retatrutide,up to 22.1%,
survodutide,up to 14.9%,
